Measurements from patent publication US6737383B1, “Herbicidal oxadiazolidines” (priority 1999, dated 2004).

Tests used:
bedstraw = experiment: Test B pre/postemergence bedstraw; format: in vivo, Galium aparine; settings: Postemergence
Procedure, shortened: (§1)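 Response is a visual 0-to-10 score relative to untreated plants, where 0 means no effect and 10 means complete control, taken twelve to sixteen days after application. Treatments went onto soil at planting and onto foliage of 1- to 4-leaf plants, using a surfactant-containing non-phytotoxic solvent.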

blackgrass = experiment: Test B pre/postemergence blackgrass; format: in vivo, Alopecurus myosuroides
Procedure, shortened: as §1

surinam grass = experiment: Test B pre/postemergence surinam grass; format: in vivo, Brachiaria decumbens
Procedure, shortened: as §1

cocklebur = experiment: Test B pre/postemergence cocklebur; format: in vivo, Xanthium strumarium
Procedure, shortened: as §1

corn = experiment: Test B pre/postemergence corn; format: in vivo, Zea mays
Procedure, shortened: as §1

crabgrass = experiment: Test B pre/postemergence crabgrass; format: in vivo, Digitaria sanguinalis
Procedure, shortened: as §1

giant foxtail = experiment: Test B pre/postemergence giant foxtail; format: in vivo, Setaria faberii
Procedure, shortened: as §1

morningglory = experiment: Test B pre/postemergence morningglory; format: in vivo, Ipomoea hederacea
Procedure, shortened: as §1

pigweed = experiment: Test B pre/postemergence pigweed; format: in vivo, Amaranthus retroflexus
Procedure, shortened: as §1

rape = experiment: Test B pre/postemergence rape; format: in vivo, Brassica napus
Procedure, shortened: as §1

soybean = experiment: Test B pre/postemergence soybean; format: in vivo, Glycine max
Procedure, shortened: as §1

sugar beet = experiment: Test B pre/postemergence sugar beet; format: in vivo, Beta vulgaris
Procedure, shortened: as §1

velvetleaf = experiment: Test B pre/postemergence velvetleaf; format: in vivo, Abutilon theophrasti
Procedure, shortened: as §1

wheat = experiment: Test B pre/postemergence wheat; format: in vivo, Triticum aestivum
Procedure, shortened: as §1

wild oat = experiment: Test B pre/postemergence wild oat; format: in vivo, Avena fatua
Procedure, shortened: as §1

purple nutsedge = experiment: Test B pre/postemergence purple nutsedge; format: in vivo, Cyperus rotundus
Procedure, shortened: as §1

rice = experiment: Test B flood test rice; format: in vivo, Oryza sativa
Procedure, shortened: (§2)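 Plants were grown to the 2-leaf stage before treatment with test chemical, then held in a greenhouse for twelve to sixteen days. Injury was visually rated against untreated controls on a 0–10 scale, where 0 is no effect and 10 is complete control.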

smallflower flatsedge = experiment: Test B flood test smallflower flatsedge; format: in vivo, Cyperus difformis
Procedure, shortened: as §2

duck salad = experiment: Test B flood test duck salad; format: in vivo, Heteranthera limosa
Procedure, shortened: as §2

bamyardgrass = experiment: Test B flood test barnyardgrass; format: in vivo, Echinochloa crus-galli
Procedure, shortened: as §2

[1] = Postemergence, Rate 62 g/ha, scale 0 to 10, 0 is no effect, 10 is complete control
[2] = Postemergence, Rate 125 g/ha, scale of 0 to 10 where 0 is no effect and 10 is complete control
[3] = Postemergence, Rate 250 g/ha, scale of 0 to 10, 0 is no effect, 10 is complete control
[4] = Postemergence, Rate 500 g/ha, scale of 0 to 10 where 0 is no effect and 10 is complete control
[5] = Preemergence, Rate 62 g/ha, scale 0 to 10 (0 no effect, 10 complete control)
[6] = Preemergence, Rate 125 g/ha, scale of 0 to 10 where 0 is no effect and 10 is complete control
[7] = Preemergence, Rate 500 g/ha, scale of 0 to 10 where 0 is no effect and 10 is complete control
[8] = Rate 62 g/ha, flood test species, Pre-emergence, visual evaluation after twelve to sixteen days
[9] = Rate 125 g/ha, under heading Pre-emergence, flood test species, visual evaluation after twelve to sixteen days
[10] = Rate 250 g/ha, Pre-emergence (flood test species), scale 0 to 10, 0 is no effect, 10 is complete control
[11] = Rate 500 g/ha, Pre-emergence section of Table B, 0 to 10 scale (0 no effect, 10 complete control)

Structure (SMILES): CCC(C)n1c(=O)on(C(=O)N(c2ccc(F)cc2)C(C)C)c1=O (centres unmarked) [Compound 613]
- Plant response rating, Bedstraw (bedstraw; Rate 62 g/ha, scale 0 to 10, 0 is no effect, 10 is complete control): 8
- Bedstraw plant response rating (bedstraw; Rate 250 g/ha, scale of 0 to 10, 0 is no effect, 10 is complete control): 8
- Plant response rating, Bedstraw (bedstraw; Rate 500 g/ha, scale of 0 to 10 where 0 is no effect and 10 is complete control): 9
- Plant response rating, Blackgrass (blackgrass; [1]): 8
- Plant response rating, Blackgrass (blackgrass; [2]): 9
- Blackgrass plant response rating (blackgrass; [3]): 9
- Plant response rating, Blackgrass (blackgrass; [4]): 9
- Blackgrass plant response rating (blackgrass; [5]): 8
- Blackgrass plant response rating (blackgrass; [6]): 8
- Blackgrass plant response rating (0 to 10 scale) (blackgrass; Preemergence, Rate 250 g/ha): 10
- Blackgrass plant response rating (blackgrass; [7]): 10
- Plant response rating, B. signalgrass (surinam grass; [1]): 1
- Plant response rating, B. signalgrass (surinam grass; [2]): 3
- B. signalgrass plant response rating (surinam grass; [3]): 6
- Plant response rating, B. signalgrass (surinam grass; [4]): 8
- B. signalgrass plant response rating (surinam grass; [5]): 7
- B. signalgrass plant response rating (surinam grass; [6]): 8
- B. signalgrass plant response rating (0 to 10 scale, 0 is no effect, 10 is complete control) (surinam grass; Preemergence, Rate 250 g/ha): 9
- B. signalgrass plant response rating (surinam grass; [7]): 9
- Plant response rating, Cocklebur (cocklebur; [1]): 0
- Plant response rating, Cocklebur (cocklebur; [2]): 2
- Cocklebur plant response rating (cocklebur; [3]): 2
- Plant response rating, Cocklebur (cocklebur; [4]): 2
- Cocklebur plant response rating (cocklebur; [5]): 0
- Cocklebur plant response rating (cocklebur; [6]): 0
- Cocklebur plant response rating (0 to 10 scale) (cocklebur; Preemergence, Rate 250 g/ha): 2
- Plant response rating, Cocklebur (cocklebur; [7]): 8
- Plant response rating, Corn (corn; [1]): 0
- Plant response rating, Corn (corn; [2]): 0
- Corn plant response rating (corn; [3]): 0
- Plant response rating, Corn (corn; [4]): 0
- Corn plant response rating (corn; [5]): 2
- Corn plant response rating (corn; [6]): 3
- Corn plant response rating (0 to 10 scale) (corn; Preemergence, Rate 250 g/ha): 9
- Plant response rating, Corn (corn; [7]): 9
- Plant response rating, Crabgrass (crabgrass; [1]): 8
- Plant response rating, Crabgrass (crabgrass; [2]): 9
- Crabgrass plant response rating (crabgrass; [3]): 9
- Plant response rating, Crabgrass (crabgrass; [4]): 9
- Crabgrass plant response rating (crabgrass; [5]): 9
- Crabgrass plant response rating (crabgrass; [6]): 10
- Plant response rating, Crabgrass (crabgrass; [7]): 10
- Plant response rating, Giant foxtail (giant foxtail; [1]): 5
- Plant response rating, Giant foxtail (giant foxtail; [2]): 9
- Giant foxtail plant response rating (giant foxtail; [3]): 9
- Plant response rating, Giant foxtail (giant foxtail; [4]): 9
- Giant foxtail plant response rating (giant foxtail; [5]): 10
- Giant foxtail plant response rating (giant foxtail; [6]): 10
- Plant response rating, Giant foxtail (giant foxtail; [7]): 10
- Plant response rating, Morningglory (morningglory; [1]): 7
- Plant response rating, Morningglory (morningglory; [2]): 7
- Morningglory plant response rating (morningglory; [3]): 8
- Plant response rating, Morningglory (morningglory; [4]): 8
- Morningglory plant response rating (morningglory; [5]): 0
- Morningglory plant response rating (morningglory; [6]): 0
- Plant response rating, Morningglory (morningglory; [7]): 10
- Plant response rating, Redroot pigweed (pigweed; [1]): 1
- Plant response rating, Redroot pigweed (pigweed; [2]): 2
- Redroot pigweed plant response rating (pigweed; [3]): 7
- Plant response rating, Redroot pigweed (pigweed; [4]): 8
- Redroot pigweed plant response rating (pigweed; [5]): 10
- Redroot pigweed plant response rating (pigweed; [6]): 10
- Plant response rating, Redroot pigweed (pigweed; [7]): 10
- Plant response rating, Rape (rape; [1]): 0
- Plant response rating, Rape (rape; [2]): 0
- Rape plant response rating (rape; [3]): 3
- Plant response rating, Rape (rape; [4]): 7
- Rape plant response rating (rape; [5]): 7
- Rape plant response rating (rape; [6]): 9
- Plant response rating, Rape (rape; [7]): 10
- Plant response rating, Soybean (soybean; [1]): 4
- Plant response rating, Soybean (soybean; [2]): 5
- Soybean plant response rating (soybean; [3]): 6
- Plant response rating, Soybean (soybean; [4]): 8
- Soybean plant response rating (soybean; [5]): 0
- Soybean plant response rating (soybean; [6]): 0
- Plant response rating, Soybean (soybean; [7]): 2
- Plant response rating, Sugarbeets (sugar beet; [1]): 0
- Plant response rating, Sugarbeets (sugar beet; [2]): 0
- Sugarbeets plant response rating (sugar beet; [3]): 0
- Plant response rating, Sugarbeets (sugar beet; [4]): 0
- Sugarbeets plant response rating (sugar beet; [5]): 3
- Sugarbeets plant response rating (sugar beet; [6]): 5
- Plant response rating, Sugarbeets (sugar beet; [7]): 10
- Plant response rating, Velvetleaf (velvetleaf; [1]): 0
- Plant response rating, Velvetleaf (velvetleaf; [2]): 4
- Velvetleaf plant response rating (velvetleaf; [3]): 5
- Plant response rating, Velvetleaf (velvetleaf; [4]): 8
- Velvetleaf plant response rating (velvetleaf; [5]): 7
- Velvetleaf plant response rating (velvetleaf; [6]): 7
- Plant response rating, Velvetleaf (velvetleaf; [7]): 8
- Plant response rating, Wheat (wheat; [1]): 0
- Plant response rating, Wheat (wheat; [2]): 0
- Wheat plant response rating (wheat; [3]): 2
- Plant response rating, Wheat (wheat; [4]): 6
- Wheat plant response rating (wheat; [5]): 0
- Wheat plant response rating (wheat; [6]): 3
- Plant response rating, Wheat (wheat; [7]): 6
- Plant response rating, Wild oats (wild oat; [1]): 1
- Plant response rating, Wild oats (wild oat; [2]): 7
- Wild oats plant response rating (wild oat; [3]): 9
- Plant response rating, Wild oats (wild oat; [4]): 9
- Wild oats plant response rating (wild oat; [5]): 7
- Wild oats plant response rating (wild oat; [6]): 9
- Plant response rating, Wild oats (wild oat; [7]): 10
- Plant response rating, Nutsedge (purple nutsedge; [1]): 0
- Plant response rating, Nutsedge (purple nutsedge; [2]): 2
- Nutsedge plant response rating (purple nutsedge; [3]): 2
- Plant response rating, Nutsedge (purple nutsedge; [4]): 4
- Nutsedge plant response rating (purple nutsedge; [5]): 0
- Nutsedge plant response rating (purple nutsedge; [6]): 0
- Plant response rating, Nutsedge (purple nutsedge; [7]): 2
- Plant response rating, Rice (0 to 10 scale, 0 is no effect, 10 is complete control) (rice; [8]): 0
- Rice plant response rating (0 to 10 scale, 0 is no effect, 10 is complete control) (rice; [9]): 0
- Rice plant response rating (rice; [10]): 0
- Rice plant response rating (rice; [11]): 0
- Plant response rating, S. Flatsedge (0 to 10 scale, 0 is no effect, 10 is complete control) (smallflower flatsedge; [8]): 0
- S. Flatsedge plant response rating (0 to 10 scale, 0 is no effect, 10 is complete control) (smallflower flatsedge; [9]): 0
- S. Flatsedge plant response rating (smallflower flatsedge; [10]): 0
- S. Flatsedge plant response rating (smallflower flatsedge; [11]): 0
- Plant response rating, Ducksalad (0 to 10 scale, 0 is no effect, 10 is complete control) (duck salad; [8]): 0
- Ducksalad plant response rating (0 to 10 scale, 0 is no effect, 10 is complete control) (duck salad; [9]): 0
- Ducksalad plant response rating (duck salad; [10]): 0
- Ducksalad plant response rating (duck salad; [11]): 0
- Plant response rating, Barnyardgrass (0 to 10 scale, 0 is no effect, 10 is complete control) (bamyardgrass; [8]): 0
- Barnyardgrass plant response rating (0 to 10 scale, 0 is no effect, 10 is complete control) (bamyardgrass; [9]): 0
- Barnyardgrass plant response rating (bamyardgrass; [10]): 0
- Barnyardgrass plant response rating (bamyardgrass; [11]): 0
